The source of these data is publication PMC9645344, “Serotonin-releasing agents with reduced off-target effects” (Molecular Psychiatry, 2022).

One experiment has as its system VMAT2. Set-up: method as in PMID 25771452. The following applies: racemic; cited from earlier work.
For another experiment, the target named is T1, human DAT (Homo sapiens, UniProt Q01959).
T1 construct: expressed in transfected cells
Description: DAT uptake inhibition assay in HEK293 cells ([3H]MPP+). It is filed as cell-based. As for the experimental part:
(§1) Human embryonic kidney 293 (HEK293) cells stably expressing the human isoforms of either DAT or SERT were maintained in Dulbecco’s Modified Eagle Medium (DMEM), supplemented with 10% fetal calf serum at a subconfluent state in humidified atmosphere (5% CO2, 37 °C).
(§2) Uptake inhibition assays were performed as described earlier. Briefly, HEK293 cells stably expressing human SERT or DAT were seeded onto poly- D-lysine (PDL) coated 96-well plates (40,000 cells well^−1) the day before an experiment. Prior to the uptake inhibition assay, DMEM was replaced with Krebs-HEPES buffer (KHB, 25 mM HEPES, 120 mM NaCl, 5 mM KCl, 1.2 mM CaCl2, 1.2 mM MgSO4, and 5 mM D-glucose, pH 7.3) and the cells were preincubated with test drugs for 5 min at room temperature. Uptake assays were initiated by adding 20 nM [^3H]MPP^+ to DAT cells or 100 nM [^3H]5-HT to SERT cells. After 180 s (DAT) or 60 s (SERT), the tritiated substrate was removed by aspiration. Cells were washed once with ice-cold KHB, then lysed in 1% sodium dodecyl sulfate (SDS) and subjected to liquid scintillation counting to quantify tritium accumulated in each sample. Non-specific uptake was determined in the presence of mazindol (1 µM) for DAT or paroxetine (1 µM) for SERT and subtracted throughout.

The target of experiment [1] is T2, human SERT (Homo sapiens, UniProt P31645).
T2 construct: expressed in transfected cells
As to the kind of experiment: SERT uptake inhibition assay in HEK293 cells ([3H]5-HT). It is filed as cell-based. Here is the method:
as §1, §2

The target in experiment [2] is T2, human SERT. Description: [3H]5-HT release assay in HEK293 cells (superfusion). The following applies: 10 µM, SERT-expressing HEK293 cells. It is filed as cell-based. As for the experimental part:
HEK293 cells stably expressing SERT were seeded onto PDL-coated glass coverslips (5 mm diameter) that were placed into 96-well plates at a density of 40,000 cells per well the day before the experiment. Cells were preloaded with [^3H]5-HT (0.4 µM, 20 min at 37 °C). Subsequently, the cells were transferred into small chambers with a total volume of 200 µl and superfused with KHB at a flow rate of 0.7 ml per min for 40 min to establish a stable baseline before the collection of 2-min fractions was initiated. For each experiment, three basal fractions were collected before the cells were exposed to various concentrations (given in the figure legends) of the test drugs for five fractions. Subsequently, the cells were superfused with 1% SDS for three final fractions that served to determine the total amount of radioactivity present within the cells at the end of each experimental run. The amount of tritium within each fraction was determined by liquid scintillation counting, and release was expressed as percentage of radioactivity released in relation to the total radioactivity present at the beginning of that fraction. Observations from superfusion experiments were excluded in case of premature exposure to SDS.

The subject of another experiment is C57BL/6N mice. As to the kind of experiment: Forced-swim test (FST). It is filed as in vivo. Particulars: mice. As for the experimental part: (§3) All in vivo experiments were performed in adult mice (>6 weeks old). For the photometry and microdialysis experiments, which were carried out in Florida, male C57BL/6J mice from The Jackson Laboratory (Bar Harbor, ME, USA) were group-housed in polycarbonate cages (GM500, Tecniplast, Buguggiate, Italy) with lights on from 7 a.m. to 7 p.m. Food and water were provided ad libitum. Photometry and microdialysis experiments were performed in accordance with a protocol approved by the Institutional Animal Care and Use Committee at Florida Atlantic University. For the behavioral experiments, which were carried out in Vienna, C57BL/6N mice from Charles River (Sulzfeld, Germany) were group-housed in polycarbonate cages with lights on from 7 a.m. to 7 p.m. Food and water were provided ad libitum. Behavioral experiments were performed in accordance with a protocol approved by the Austrian national ethical committee on animal care and use (Bundesministerium für Wissenschaft und Forschung: BMWFW-66.009/0016-WF/V/3b/2015). All animal procedures were conducted in agreement with the ARRIVE guidelines and the U.K. Animal (Scientific Procedures) Act, 1986, and associated guidelines, EU Directive 2010/63/EU for animal experiments. Mice were given at least 1 week to acclimate before being used in any experiments.
For behavioral assays, animals were assigned to treatment groups and injected with test drugs by an unblinded observer.
The FST was performed as previously described. In brief, mice were placed for 6 min in a beaker (diameter: 19 cm, height: 23 cm), halfway filled with water (22–23 °C), and the immobility time was quantified using the software Videotrack (Viewpoint, Champagne au Mont d’Or, France). Immobility was defined as the absence of any movement, except for those required to keep the head above the water. The time spent immobile during the final 4 min of the test was used as a measure of behavioral despair. Animal sample size was confirmed using a post hoc analysis of the achieved power using G*Power3.1 [29]. Using a significance level (α) of 0.05 and an effect size f = 2.5 and a sample size of 6 animals/group we achieved the commonly accepted statistical power (1−β) of 0.8.

The subject of experiment [3] is extracellular 5-HT in the NAc. Description: Fiber photometry with GRAB5-HT sensor in the NAc of freely moving mice. It is filed as in vivo. Particulars: 5 mg kg-1 intraperitoneal. As for the experimental part: as §3
Mice were anesthetized with isoflurane (5% induction, 2% maintenance) and placed into a stereotaxic frame (Kopf Instruments, Tujunga, CA, USA) oriented in the flat skull position. Ophthalmic ointment was applied to prevent drying of the eyes. Ketoprofen (10 mg kg^−1) was administered subcutaneously (s.c.), whereas bupivacaine and lidocaine were administered locally (s.c.; 100 µl of sterile saline containing 0.05% bupivacaine and 0.2% lidocaine) to the surgical site atop the head. A midline incision was made through the skin on the dorsal surface of the head to expose the skull. Fascia was removed, coordinates for the NAc were determined relative to bregma: anterior/posterior = 1.54 mm; medial/lateral = 0.7 mm; dorsal/ventral = −4.1 mm. A 1 mm burr hole was drilled through the skull. […] For the mice used for fiber photometry, 4*10^12 genome copies of AAV9-hSyn-5-HT2h or 10^10 genome copies of AAV-hSyn-DA2m were delivered into the NAc at an infusion rate of 100 nl min^−1 (total volume of 1 µl) using a 34-gauge needle attached to a 10 µl Nanofil microsyringe (Hamilton, Reno, NV, USA), as previously described. Following injection of the virus, an optical fiber was lowered through the burr hole and secured with glass ionomer cement. Three 1.6 mm screws (00-96X1/16 39052, Plastics One Inc., Roanoke, VA, USA) were affixed to the skull to support a cement stage that was created to secure the implanted guide cannulae or optical fiber. Mice were singly housed following surgery and allowed 6 days of recovery for the microdialysis experiments or 21 days for the photometry experiments. Food and water were available ad libitum.
To monitor light emitted from the G-protein coupled receptor-activation-based 5-HT (GRAB5-HT) and DA (GRABDA) sensors, fiber photometry was performed as described. Briefly, a light emitting diode (465 nm) (CLED_465, Doric Lenses, Quebec, QC, Canada), reflected through a dichroic mirror, was coupled to an optical fiber (200 µm core/225 cladding diameter; Thorlabs, Newton, NJ, USA) that was glued to a metal ferrule (Doric Lenses, Quebec, QC, Canada) and implanted into the NAc as described above. Emitted, band-pass filtered light (500–550 nm, FMC6, Doric Lenses, Quebec,QC, Canada) was detected with a photodetector (Newport Femtowatt silicone PIN; New Focus, San Jose, CA, USA). Data were recorded using a RZ5P lock-in amplifier (Tucker-Davis Technologies, Alachua, FL, USA) controlled with Synapse software. Sinusoidal excitation was delivered at 210 Hz by an LED driver Doric Lenses, LEDD_4) at low power mode. A demodulated signal was low-pass filtered at 6 Hz and digitized at 1017 Hz. […]

The next experiment concerns rat brain synaptosomes. Set-up: method as in PMID 26738428. The following applies: cited from earlier work.
The subject of the next experiment is extracellular DA. Set-up: method as in PMID 23178523. Particulars: racemic; cited from earlier work.

T1 sequence (Q01959 whole entry): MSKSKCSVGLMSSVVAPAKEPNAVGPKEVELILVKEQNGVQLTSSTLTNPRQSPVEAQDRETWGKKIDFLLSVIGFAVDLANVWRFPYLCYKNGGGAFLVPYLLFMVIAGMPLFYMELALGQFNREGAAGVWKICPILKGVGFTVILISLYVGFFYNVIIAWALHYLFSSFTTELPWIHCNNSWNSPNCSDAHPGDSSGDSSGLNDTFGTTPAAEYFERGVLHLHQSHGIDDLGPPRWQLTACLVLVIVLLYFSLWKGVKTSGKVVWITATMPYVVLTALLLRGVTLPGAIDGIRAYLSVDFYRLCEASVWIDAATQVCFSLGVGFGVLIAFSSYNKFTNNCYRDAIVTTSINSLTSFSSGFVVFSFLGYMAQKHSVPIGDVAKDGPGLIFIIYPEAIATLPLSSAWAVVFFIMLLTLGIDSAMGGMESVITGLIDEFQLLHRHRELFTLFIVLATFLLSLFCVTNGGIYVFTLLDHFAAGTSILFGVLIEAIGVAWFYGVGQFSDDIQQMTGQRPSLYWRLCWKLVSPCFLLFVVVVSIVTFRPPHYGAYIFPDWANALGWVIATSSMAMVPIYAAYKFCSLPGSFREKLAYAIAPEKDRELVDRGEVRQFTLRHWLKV
T2 sequence (P31645 whole entry): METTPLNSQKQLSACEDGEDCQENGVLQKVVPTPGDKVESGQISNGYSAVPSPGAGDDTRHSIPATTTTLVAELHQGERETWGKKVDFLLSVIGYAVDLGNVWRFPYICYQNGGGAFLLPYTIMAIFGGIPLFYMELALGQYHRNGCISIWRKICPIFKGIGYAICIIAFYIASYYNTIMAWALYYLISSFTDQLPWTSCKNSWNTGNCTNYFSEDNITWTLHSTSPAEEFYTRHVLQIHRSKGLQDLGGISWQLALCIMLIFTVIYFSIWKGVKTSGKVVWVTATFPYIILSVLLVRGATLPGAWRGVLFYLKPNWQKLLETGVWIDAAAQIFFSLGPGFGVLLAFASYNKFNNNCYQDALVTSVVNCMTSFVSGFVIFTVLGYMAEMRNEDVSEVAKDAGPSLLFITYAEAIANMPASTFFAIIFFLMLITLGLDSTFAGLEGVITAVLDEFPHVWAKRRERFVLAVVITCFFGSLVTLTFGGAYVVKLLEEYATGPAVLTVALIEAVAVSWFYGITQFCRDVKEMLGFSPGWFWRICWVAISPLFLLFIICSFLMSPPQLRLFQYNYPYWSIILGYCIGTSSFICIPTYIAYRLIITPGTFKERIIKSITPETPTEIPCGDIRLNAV

For `CNC(C)C(=O)c1ccc(C)cc1` (stereo not drawn) [4-MMC, 4-methyl-N-methylcathinone], the “potency to inhibit VMAT2-mediated uptake, lower than that of MDMA” value with VMAT2 was 10 fold.
Regarding `Cc1ccc(C(=O)[C@@H](C)N)cc1` [R-4-MC, 4-methylcathinone], the half-inhibitory concentration (IC50) (commonly the concentration needed to halve the response being measured) was found to be 9.6 µM against human DAT and 186 µM on human SERT [1]. On human DAT ((1/DAT IC50)/(1/SERT IC50), higher values indicate higher DAT-selectivity), the DAT/SERT ratio stood at 19.3. At human SERT [2], the “effect on release of preloaded [3H]5-HT” value is reported as “did not alter basal release of 5-HT”. For the same compound, the “immobility time in the FST versus vehicle” value with C57BL/6N mice (1 mg kg-1 intraperitoneal), with C57BL/6N mice (5 mg kg-1 intraperitoneal) and in the experiment on C57BL/6N mice (10 mg kg-1 intraperitoneal) was “had no effect” in each case. For the same compound, the “extracellular 5-HT in the NAc (GRAB5-HT fluorescence)” value in experiment [3] was “no effect on 5-HT was observed”. For the same compound, the “5-HT release efficacy in rat brain synaptosomes” value in the experiment with rat brain synaptosomes was “fully efficacious 5-HT releaser”.
Take `CNC(C)C(=O)c1ccc(C(F)(F)F)cc1` (stereo not drawn) [4-TFMMC, 4-trifluoromethyl-N-methylcathinone]: at human DAT, the half-inhibitory concentration (IC50) is > 100 µM. For the same compound, the “extracellular DA” value with extracellular DA was “did not affect extracellular DA”.
